These results are taken from US20240382403A1, “COSMETIC, DERMATOLOGICAL OR COSMECEUTICAL TREATMENT, IN PARTICULAR PROPIGMENTING” (Sederma, priority 2021, published 2024).

Series [1] relates to normal human melanocytes (NHM). As to the kind of experiment: Melanin production by NHM without UV induction (spectrophotometry). The format is cell-based. Particulars: for increase in pigmentation of NHM vs. control: 16 ppm; for melanin production by NHM, Variation (%) vs control / Melanin: n = 4; for Melanin Variation (%) vs control / Melanin: 10 days contact; for Melanin: without UV induction. On the procedure: (§1) NHM are cultivated and placed in contact with the product according to the invention for 10 days. At the end of this contact period, the mats are ground and the melanin is extracted from the cells. The quantity of melanin is assessed by spectrophotometry, using a standard range established previously from a melanin solution and compared to the control. A protein assay using the bicinchoninic acid (BCA) method is performed to estimate the quantity of cells and to standardise the obtained data.
The tests were carried out on NHM, the protocol being the same to the one above of point a)
The protocol is the same as that of point a) above.

Series [2] deals with B16 mouse pigment cells. Description: Melanin production by B16 mouse pigment cells. The format is cell-based. The following applies: 2 days contact; for Melanin: n = 4. On the procedure: as §1
(§2) B16 mouse pigment cells are cultivated and placed in contact with the product according to the invention for 2 days. For this type of cells, tyrosinase is also assayed. Tyrosinase is the first enzyme in the chain of melanogenesis, changing tyrosine to DOPA-quinone.

In series [3] the test system is Tyrosinase. As to the kind of experiment: Tyrosinase activity by B16 mouse pigment cells. Format: cell-based. The following applies: 2 days contact; for Tyrosinase: n = 4. On the procedure:
as §2

Series [4] has as its system Normal human keratinocytes (NHK). As to the kind of experiment: NHK phagocytosis of fluorescent microbeads mimicking melanosomes. Format: cell-based. The following applies: for Phagocytosis (μbeas: (Total Area/1000)): 24 h treatment then beads 3 h, n = 4. On the procedure:
Normal human keratinocytes (NHK) are seeded and cultured and, once at 50% sub-confluence, receive the tyrosine derivative according to the invention, or its solvent, at different concentrations for 24 h. At the end of this period, the cells receive the fluorescent microbeads mimicking melanosomes for 3 h. Then, the cells are rinsed to remove excess beads, and the mats are visualized under a fluorescence microscope to quantify phagocytosis. The cell concentration is estimated using the Hoescht method.

The test system of series [5] is HaCaT keratinoctes. Description: Hyaluronic acid production by keratinocytes (ELISA). The format is cell-based. The following applies: 3 days; for Hyaluronic acid: n = 4. On the procedure:
(§3) HaCaT keratinoctes are seeded and cultured and, once at sub-confluence, receive the tyrosine derivative according to the invention, or its solvent, at different concentrations for 3 days. At the end of this period, the media are collected for hyaluronic acid and laminin assays using ELISA methods. The cell concentration is estimated using the Hoescht method.

Series [6] concerns HaCaT keratinoctes. Description: Laminin production by keratinocytes (ELISA). The format is cell-based. Particulars: 3 days; for Laminin: n = 4. On the procedure: as §3
In general terms: An ELISA detects its analyte on a solid surface through an enzyme-linked reagent.

Series [7] has as its system keratinocytes. Description: PGE2 in keratinocytes with or without UVB (ELISA). The following applies: for PGE2 with UVB irradiation / PGE2 without irradiation: n = 3. The format is cell-based. On the procedure:
(§4) Keratinocytes are seeded and cultured and, once at sub-confluence, receive the tyrosine derivative according to the invention, or its solvent, at different concentrations. After 24 hours, the cells are rinsed and then exposed to UVB, and the cells are then re-treated with the media containing the tyrosine derivative according to the invention at different concentrations for 24 hours. Other cases are not exposed. The culture media are assayed for PGE2, IL6 and IL8 using ELISA methods. The number of cells was estimated using the Hoescht method.

The test system of series [8] is fibroblasts. As to the kind of experiment: PGE2 in fibroblasts with or without UVB (ELISA). Format: cell-based. Particulars: for PGE2 with UVB irradiation / PGE2 without irradiation: n = 3. On the procedure: as §4
The same protocol is applied in parallel to Fibroblasts.

Series [9] relates to keratinocytes. As to the kind of experiment: IL8 in keratinocytes with UVB (ELISA). The format is cell-based. The following applies: for IL8 with UVB irradiation: n = 2. On the procedure: as §4
Series [10] concerns keratinocytes. As to the kind of experiment: IL6 in keratinocytes with UVB (ELISA). Format: cell-based. Particulars: for IL6 with UVB irradiation: n = 2. On the procedure: as §4
For series [11], the system named is NHM. As to the kind of experiment: Number of cells (BCA protein assay) in the NHM melanin test. The format is cell-based, human. Particulars: tested concentrations 5.5 and 11 ppm. On the procedure: as §1
The subject of series [12] is B16 mouse pigment cells. Description: Number of cells in the B16 melanin test. The format is cell-based. Particulars: tested concentrations 5.5 and 11 ppm. On the procedure:
as §1, §2

Series [13] concerns NHM. Description: Pigmentation of NHM, microscopic observation by expert. The following applies: 10 days. The format is cell-based, human. On the procedure:
NHM are cultivated and placed in contact with the product according to the invention for 10 days. At the end of this contact period, cells are observed with a microscope and variation of pigmentation of cells versus control is evaluated by an expert.

The mark [14] stands for this setting: 12.5 μM (5.5 ppm of N-Palmitoyl-O-methyl-L-Tyrosine, 5.25 ppm of N-Palmitoyl-L-Tyrosine).
Setting [15] is: 25 μM (11 ppm of N-Palmitoyl-O-methyl-L-Tyrosine, 10.5 ppm of N-Palmitoyl-L-Tyrosine).

As to `CCCCCCCC/C=C\CCCCCCCCN[C@@H](Cc1ccc(O)cc1)C(=O)O` [oleyl tyrosine, reference compound], the “increase in pigmentation of NHM vs. control” value in series [1] (NHM) is 9%. The “increase in NHM pigmentation vs. control” value in series [1] (NHM, approximately 3 times more oleyl tyrosine applied than 16 ppm) is reported as “+35%”.
For the compound `CCCCCCCCCCCCCCCC(=O)N[C@@H](Cc1ccc(OC)cc1)C(=O)O` [N-Palmitoyl-O-methyl-L-Tyrosine], the “melanin production by NHM, Variation (%) vs control” value in series [1] (setting [14]) is given as “+50%; p < 0.01”; in [1] (setting [15]) it was “+86%; p < 0.01”. The “increase in pigmentation of NHM vs. control” value in series [1] (NHM) is recorded as 52%. Further, the “Melanin Variation (%) vs control” value in series [1] (NHM, 5.5 ppm) is on record as “+50%; p < 0.01”; in series [1] (NHM, 11 ppm), “+86%; p < 0.01”; in series [2] (5.5 ppm), “+26%; p < 0.01”; in series [2] (11 ppm) it was “+62%; p < 0.01”. For the same compound, the Melanin in [1] (NHM, 5.5 ppm) is recorded as 404 +/− 42 μg/mL/10^6 cell; in series [1] (NHM, 11 ppm), 501 +/− 41 μg/mL/10^6 cell; in [2] (5.5 ppm) it was 171.1 +/− 2.3 μg/mL/10^6 cell; in [2] (11 ppm) it was 220.7 +/− 8.7 μg/mL/10^6 cell. Further, the “Tyrosinase Variation (%) vs control” value in [3] (5.5 ppm) is recorded as “+9.7%; p < 0.01”; in series [3] (11 ppm), “+20.5%; p < 0.01”. Further, the Tyrosinase in [3] (5.5 ppm) was 2.8 +/− 0 U/1000 μg protein; in series [3] (11 ppm), 3.1 +/− 0 U/1000 μg protein. The “Phagocytosis Variation (%) vs control” value is recorded as “+71%; p < 0.01” in series [4] (5.5 ppm) and “+129%; p < 0.01” in series [4] (11 ppm). Also, the “Phagocytosis (μbeas: (Total Area/1000))” value in series [4] (5.5 ppm) is listed as 6599 +/− 1115 Total Area/1000; in series [4] (11 ppm) it was 9910 +/− 1161 Total Area/1000. Moreover, the “Hyaluronic acid Variation (%) vs control” value in [5] (1.375 ppm) is reported as “+35%; p < 0.01”; in [5] (2.75 ppm), “+31%; p < 0.01”. The Hyaluronic acid in series [5] (1.375 ppm) was 402 +/− 35 ng/10^6 cell; in [5] (2.75 ppm), 391 +/− 25 ng/10^6 cell. Besides, the “Laminin Variation (%) vs control” value in series [6] (2.75 ppm) was “+33%; p < 0.01”; in series [6] (5.5 ppm), “+69%; p < 0.01”. Besides, the Laminin in [6] (2.75 ppm) is on record as 88 +/− 3 ng/10^6 cell; in series [6] (5.5 ppm), 111 +/− 9 ng/10^6 cell. For the same compound, the “PGE2 with UVB irradiation Variation (%) vs control” value was −62%; p < 0.01 in [7] (5.5 ppm); −73%; p < 0.01 in [7] (11 ppm); −19%; nsd* in [8] (5.5 ppm, non significant data); −33%; p < 0.01 in series [8] (11 ppm). Moreover, the “PGE2 without irradiation Variation (%) vs control” value in series [7] (5.5 ppm) is given as −60%; p < 0.01; in series [7] (11 ppm), −58%; p < 0.01; in series [8] (5.5 ppm), −32%; p < 0.01; in series [8] (11 ppm), −41%; p < 0.01. Moreover, the “PGE2 with UVB irradiation” value was 101 +/− 7 ng/10^6 cell in series [7] (5.5 ppm), 72 +/− 3 ng/10^6 cell in series [7] (11 ppm), 7332 +/− 478 ng/10^6 cell in series [8] (5.5 ppm) and 6117 +/− 735 ng/10^6 cell in [8] (11 ppm). Besides, the PGE2 without irradiation in [7] (5.5 ppm) is 51 +/− 5 ng/10^6 cell; in [7] (11 ppm), 54 +/− 5 ng/10^6 cell; in [8] (5.5 ppm), 7420 +/− 422 ng/10^6 cell; in series [8] (11 ppm) it was 6470 +/− 311 ng/10^6 cell. Further, the “IL8 with UVB irradiation Variation (%) vs control” value in series [9] (5.5 ppm) is listed as −42%; p < 0.01; in series [9] (11 ppm) it was −90%; p < 0.01. Further, the “IL8 with UVB irradiation” value is reported as 4.3 +/− 0.7 ng/10^6 cell in [9] (5.5 ppm) and 0.7 +/− 0 ng/10^6 cell in series [9] (11 ppm). Moreover, the “IL6 with UVB irradiation Variation (%) vs control” value in series [10] (5.5 ppm) was −43%; p < 0.01; in series [10] (11 ppm), −45%; p < 0.01. The results for the “IL6 with UVB irradiation” value in series [10] (5.5 ppm) and in series [10] (11 ppm) were 880 +/− 142 ng/10^6 cell and 853 +/− 115 ng/10^6 cell, respectively. In addition, the “number of cells / toxicity” value in [11] and in [12] was “neither toxic nor multiplication activator” each time.
For the compound `CCCCCCCCCCCCCCCC(=O)N[C@@H](Cc1ccc(O)cc1)C(=O)O` [N-Palmitoyl-L-Tyrosine, reference compound], the “melanin production by NHM, Variation (%) vs control” value in series [1] (setting [14]) is “+7%; dns”; in series [1] (setting [15]), “+10%; dns”. Also, the “Variation of pigmentation of cells versus control (expert grade)” value in series [13] (12.5 μM) and in series [13] (25 μM) was 0 each time.
